What all share (type): in vivo
Test [1] relates to Phaedon cochleariae larvae. The test can be described thus: Phaedon cochleariae larvae test (cabbage leaf dip). To be noted: Table B, 0.16 ppm. The text has this:
(§1) The expected action for a given combination of two active compounds can be calculated as follows, according to S. R. Colby, Weeds 15 (1967), 20-22:
(§2) If • X is the kill rate, expressed as a percentage of the untreated control, when employing active compound A at an application rate of m g/ha or in a concentration of m ppm, • Y is the kill rate, expressed as a percentage of the untreated control, when employing active compound B at an application rate of n g/ha or in a concentration of n ppm and • E is the kill rate, expressed as a percentage of the untreated control, when employing active compounds A and B at application rates of m and n g/ha or in a concentration of m and n ppm, then
(§3) If the actual insecticidal kill rate exceeds the calculated value, the action of the combination is superadditive, i.e. a synergistic effect is present. In this case, the actually observed kill rate must exceed the value calculated using the above formula for the expected kill rate (E).
Phaedon cochleariae Larvae Test
To produce a suitable preparation of active compound, 1 part by weight of active compound is mixed with the stated amounts of solvent and emulsifier, and the concentrate is diluted with emulsifier-containing water to the desired concentration. […]
After the desired period of time, the kill in % is determined. […] The kill rates determined are calculated using Colby's formula (see page 39).

The test system of a further test is Spodoptera frugiperda. The test can be described thus: Spodoptera frugiperda test (cabbage leaf dip). The conditions noted are these: Table D, 0.032 ppm.
Text: as §1, §2, §3
Spodoptera frugiperda Test […]
After the desired period of time, the kill in % is determined: 100% means that all caterpillars have been killed; 0% means that none of the caterpillars have been killed. The kill rates determined are calculated using Colby's formula (see page 39).

Test [2] deals with Plutella xylostella, resistant strain. Briefly: Plutella-xylostella test (resistant strain), cabbage leaf dip.
Text: as §1, §2, §3
Plutella-xylostella Test (Resistant Strain)
(§4) To produce a suitable preparation of active compound, 1 part by weight of active compound is mixed with the stated amounts of solvent and emulsifier, and the concentrate is diluted with emulsifier-containing water to the desired concentration.
Cabbage leaves (Brassica oleracea) are treated by being dipped into the preparation of active compound of the desired concentration and are populated with caterpillars of the diamond back moth (Plutella xylostella, resistant strain), while the leaves are still moist.
After the desired period of time, the kill in % is determined. 100% means that all caterpillars have been killed; 0% means that none of the caterpillars have been killed. The kill rates determined are calculated using Colby's formula (see page 39).

Another test deals with Myzus persicae. Briefly: Myzus persicae test (cabbage leaf dip).
Text: as §1, §2, §3, §4
Cabbage leaves (Brassica oleracea) which are heavily infested by the green peach aphid (Myzus persicae) are treated by being dipped into the preparation of active compound of the desired concentration.
After the desired period of time, the kill in % is determined. 100% means that all aphids have been killed; 0% means that none of the aphids have been killed. The kill rates determined are calculated using Colby's formula (see page 39).

As for `CC1(C)C(C=C(Cl)Cl)C1C(=O)OC(C#N)c1ccc(F)c(Oc2ccccc2)c1` (stereo not drawn) [(2-3) betacyfluthrin, betacyfluthrin], the “Kill rate in % after 3 d, found” value in test [1] was determined as 15%. Besides, the “Kill rate in % after 6 d, found” value with Spodoptera frugiperda came to 0%; in test [2] (Table C1, 0.0064 ppm), 0%.
On to `CC1(C)C(C=C(Br)Br)C1C(=O)OC(C#N)c1cccc(Oc2ccccc2)c1` (stereo not drawn) [(2-6) deltamethrin, deltamethrin], for which the “Kill rate in % after 6 d, found” value in the test with Myzus persicae (Table A1, 0.16 ppm) came to 50%.
Turning to `CC1(C)C(/C=C(\Cl)C(F)(F)F)C1C(=O)OC(C#N)c1cccc(Oc2ccccc2)c1` (stereo not drawn) [(2-12) lambda-cyhalothrin, lambda-cyhalothrin], the “Kill rate in % after 6 d, found” value in the test on Myzus persicae (Table A2, 0.032 ppm) turned out to be 0%; in test [2] (Table C2, 0.0064 ppm), 0%.
Take `Cc1cc(Cl)cc(C(=O)NC(C)C)c1NC(=O)c1cc(C(F)(F)F)nn1-c1ncccc1Cl` [Example I-1-9]: the “Kill rate in % after 3 d, found” value in test [1] came to 0%. For the same molecule, the “Kill rate in % after 6 d, found” value with Myzus persicae (Table A1, 4 ppm) stood at 15%; in the test on Myzus persicae (Table A2, 0.8 ppm) it was 0%; in the test with Spodoptera frugiperda, 75%; in test [2] (Table C1, 0.0064 ppm) it was 0%; in test [2] (Table C2, 0.0064 ppm), 10%.

Source of the values: patent US8268751B2, “Combination of active substances with insecticidal properties” (Bayer Cropscience AG, priority 2003, dated 2012).
